# Reference: patent publication US11970436B2, “Pharmaceutical compositions comprising monoterpenes” (NEONC Technologies, Inc., priority 2010, dated 2024)
# pEC50: −log10 of the molar value.
# Experiments:
# cancer stem cells USC-04 = assay: MTT cytotoxicity assay on cancer stem cells USC-04; assay type: cell-based; conditions: Homo sapiens
# Excerpt: (§1) Verapamil is used as an inhibitor of drug efflux pump proteins such as P-glycoprotein.
# VEGF = assay: ELISA for VEGF secretion; assay type: cell-based; conditions: U87 human glioma cells, POH for 48 hours
# Description: (§2) ELISA was performed after cells were treated with POH for 48 hours.
# (§3) Pyrko et al. The unfolded protein response regulator GRP78/BiP as a novel target for increasing chemosensitivity in malignant gliomas. Cancer Res 67(20):9809-16, 2007. […] In addition, it may overcome the immunosuppressive functions of transforming growth factor beta-2 (TGFβ-2) secreted by glioma cells.
# [1] = oral, cited from earlier work
# H-Ras [2] = assay: H-ras production in glioblastoma cancer stem cells; assay type: cell-based, human; conditions: USC-02 and USC-04, POH for 24 hours
# Description: Two glioblastoma cancer stem cell lines (USC-02, USC-04) were treated by POH for 24 hours. USC-02 and USC-04 are two independent primary cancer stem cell lines isolated from glioblastoma tissue from two different patients.
# [3] = tested on: glioblastoma cancer stem cell line USC-02; assay: MTT assay on glioblastoma cancer stem cells USC-02; assay type: cell-based, human
# Excerpt: as §1
# glioma cells = assay: Apoptosis / cell killing by rolipram with or without POH; assay type: cell-based
# Description: When cells were treated with rolipram alone, apoptosis occurred only after 48 hours post the addition of high concentrations of rolipram (e.g., 1 mM). Synergistic cell killing by rolipram and POH occurred within a much shorter time period, i.e., 6 hours after the addition of the drugs. Chen et al. The type IV phosphodiesterase inhibitor rolipram induces expression of the cell cycle inhibitors p21 Cip 1 and p27Kip1, resulting in growth inhibition, increased differentiation, and subsequent apoptosis of malignant A-12 glioma cells. Cancer Biology & Therapy, Vol. 1:3, 268-276, 2003.
# [4] = tested on: CCAAT/enhancer binding protein (CHOP); assay: Western blot apoptosis marker CHOP; assay type: cell-based, human; conditions: 20 hours
# Description: (§4) The treatments for different lanes of the Western blot are as follows: 1: No treatment; 2: 0.5 mM purified POH; 3: 1.5 mM purified POH; 4: 0.5 mM Sigma POH; 5: 1.5 mM Sigma POH; 6: 0.5 mM Wako POH; 7: 1.5 mM Wako POH; 8: Positive Control (DMC 40uM). Sigma POH is the POH purchased from Sigma Chemicals. Wako POH is the POH purchased from […]. Cells were treated with different agents or mock treated for 20 hours before being lysed.
# (§5) Sigma POH is the POH purchased from Sigma Chemicals.
# (§6) GRP78 is an anti-apoptotic protein the level of which is increased in response to stress. CHOP is a proapoptotic protein signaling for apoptosis. Pyrko et al. The unfolded protein response regulator GRP78/BiP as a novel target for increasing chemosensitivity in malignant gliomas. Cancer Research 67(20):9809-16, 2007.
# (§7) U251 TMZ-sensitive and TMZ-resistant (U251/TR1, U251/TR2) cells were treated with Sigma POH (1.5 mM) or purified POH (1.5 mM) for 20 hours, then Western blot was performed.
# glioma = assay: Boyden matrigel chamber invasion; assay type: cell-based
# [5] = tested on: cell lines that were TMZ resistant; assay: Cytotoxicity assay, POH combined with TMZ, resistant lines; assay type: cell-based; conditions: POH and TMZ
# Description: (§8) Cytotoxicity assays were carried out after cells were treated with POH in combination with temozolomide (TMZ), the standard alkylating agent used in the treatment of malignant gliomas. […] This effect was also seen in cell lines that were TMZ resistant.
# [6] = tested on: U251, LN229 and U87 human glioma cells; assay: MTT cytotoxicity assay, POH combined with DMC; assay type: cell-based; conditions: MTT and colony formation assays, FIG. 5A
# Excerpt: (§9) Pyrko et al. HIV-1 protease inhibitors nelfinavir and atazanavir induce malignant glioma death by triggering endoplasmic reticulum stress. Cancer Res 67(22): 10920-10928, 2007.
# [7] = tested on: recurrent malignant gliomas; conditions: intranasal delivery, patients with recurrent malignant gliomas; cited from earlier work
# U251 human glioma cells [8] = assay: MTT cytotoxicity assay, POH combined with Nelfinavir; assay type: cell-based; conditions: FIG. 5B
# Excerpt: as §9
# [9] = tested on: glioma tumor cells (U251 cells); assay: MTT cytotoxicity assay, glioma cells versus normal brain cells; assay type: cell-based, human; conditions: FIG. 14
# Excerpt: as §1
# U251 human glioma cells [10] = assay: MTT cytotoxicity assay, POH combined with TMZ; assay type: cell-based; conditions: POH and TMZ, FIG. 5C
# Description: as §8
# interleukin 8 (IL8) = assay: ELISA for IL-8 secretion; assay type: cell-based; conditions: U87 human glioma cells, POH for 48 hours
# Description: as §2, §3
# [11] = tested on: glioblastoma cancer stem cells (USC04); assay: Sphere formation assay (SFA); assay type: cell-based, human; conditions: POH 0-1.5 mM for 6 days
# Description: USC04 cells were incubated with varying concentrations of POH (0-1.5 mM) for 6 days.
# [12] = tested on: glucose-regulated protein 78 (GRP78); assay: Western blot ER stress marker GRP78; assay type: cell-based, human; conditions: 20 hours
# Description: as §4, §5, §6, §7
# [13] = tested on: normal stem cells mSVZ (mouse SVZ stem cells), brain endothelial cells (BECs) and astrocytes; assay: Comparison of POH IC50 values, normal cells; assay type: cell-based; conditions: FIG. 18, normal cells
# [14] = tested on: brain endothelial cells (BECs); assay: Transepithelial electrical resistance (TEER), in vitro blood brain barrier model; assay type: cell-based; conditions: 0.03% POH for 20 hours, compared to medium only, 0.01% and 0.02% POH
# Description: In these experiments, brain endothelial cells (BECs) were used as an in vitro model of blood brain barrier. The increase in TEER in each group over time corresponds to increased confluency of the cells in culture. TEER decreased when cells were treated by 0.03% POH for 20 hours compared to medium only, 0.01% POH treatment, and 0.02% POH treatment.
# Transepithelial electrical resistance (TEER) assays were performed assessing the ability of POH to increase paracellular permeability (FIG. 7A). In these experiments, brain endothelial cells (BECs) were used as an in vitro blood brain barrier model. […] TEER decreased when cells were treated by 0.03% POH for 20 hours compared to medium only, 0.01% POH treatment, and 0.02% POH treatment. The increase in TEER in each group over time corresponds to increased confluency of the cells in culture.
# H-Ras [15] = assay: Western blot H-Ras expression; assay type: cell-based, human; conditions: U251 glioma cells, 24 hours
# Description: (§10) U251 glioma cells were treated with Sigma POH or purified POH for 24 hours, then Western blot was performed.
# K-Ras = assay: Western blot K-Ras expression; assay type: cell-based, human; conditions: U251 glioma cells, 24 hours
# Description: as §10
# [16] = tested on: intracranial glioma model; assay: Intracranial glioma model in athymic nu/nu mice, survival; assay type: in vivo; conditions: mice treated with TMZ; untreated about four weeks
# Description: Male athymic nu/nu mice (6-8 weeks old) will be employed for this research. Rodent subcutaneous/intracranial glioma model can be established as follows. Six to eight week old athymic nu/nu mice will be anesthesized with intraperitoneal injections of ketamine (80 mg/kg) and xylazine (10 mg/kg). For the intracranial glioma model, the mice are placed into a stereotactic head frame (Harvard Apparatus), and local anesthetic (0.2 cc of 0.25% xylocaine) is injected into the right frontal scalp. A knife blade is used to make a small incision, and a drill bit is used to make a small opening in the right frontal skull at the level of the coronal suture. Glioma cells (1×10^5 cells/10 μl), for example, U-87 human glioma cells, will be loaded into a calibrated Hamilton syringe. The needle tip will be placed precisely into the right frontal lobe of the […], and cells will be slowly injected using a control push from the Hamilton syringe. After the injection is finished, the syringe and needle will be removed, and the wound closed.
# Brains will be harvested, and tumor size determined. Survival curves will be constructed by following the mice until they develop neurological deficits. Our experience has been that survival is about four weeks after implantation for untreated mice, and up to 8 weeks for mice treated with TMZ.
# [17] = tested on: U251 human glioma cells (temozolomide-sensitive); assay type: cell-based
# Excerpt: (§11) U251/TR1 and U251/TR2 refer to two temozolomide-resistant U251 cell lines.
# [18] = tested on: U251, U87, LN299 and A172 human glioma cells; assay type: cell-based
# [19] = tested on: U251 temozolomide-resistant cells (U251/TR1); assay: Colony formation assay on temozolomide-resistant U251; assay type: cell-based, human; conditions: FIG. 3C
# B16-F1 melanoma cells = assay: Colony formation assay, POH plus radiation; assay type: cell-based; conditions: FIG. 4B
# Description: (§12) Cells were treated with 325 μM or 650 μM POH prior to radiation at the doses of 2, 5 or 10 Grays (Gy). […] This was confirmed for another human glioma cell line (U251) and also for a melanoma cell line (B16-F1) (FIG. 4B).
# human A172 glioma cells = assay: Colony formation assay, POH plus radiation; assay type: cell-based; conditions: 325 μM or 650 μM POH prior to radiation at 2, 5 or 10 Gy
# Description: as §12
# [20] = tested on: U251 human malignant glioma cells; assay: Colony formation assay, POH plus radiation; assay type: cell-based; conditions: FIG. 4B
# Description: as §12
# [21] = tested on: U251 temozolomide-resistant cells (U251/TR1 and U251/TR2); assay type: cell-based, human
# Excerpt: as §11
# [22] = U251 TMZ-sensitive and TMZ-resistant (U251/TR1, U251/TR2) cells, 1.5 mM
smiles,measurement,setting,value
"Cc1ccc(C)c(-c2cc(C(F)(F)F)nn2-c2ccc(S(N)(=O)=O)cc2)c1 [DMC, dimethyl-celecoxib, reference compound]",pEC50,cancer stem cells USC-04; FIG. 15B,4.11
"C=C(C)[C@@H]1CC=C(CO)CC1 [POH, perillyl alcohol]",production of VEGF by glioma cells,VEGF,inhibited production
same,anti-cancer efficacy,[1],limited
same,tolerability,[1]; mainly gastrointestinal side effects,generally poorly tolerated
same,H-ras production,H-Ras [2],decreased H-ras production
same,POH IC50 compared among cell lines,"[3]; FIG. 18, USC-02 cells",most sensitive
same,sensitivity of USC-02 to POH relative to U251 cells or normal stem cells (mSVZ),"[3]; MTT, 48 hrs",more sensitive
same,time after addition of the drugs at which synergistic cell killing occurred,glioma cells; rolipram and POH in combination,6 h
same,level of CHOP,"[4]; U251, U87 and A172 cells",up-regulated
same,glioma invasion,glioma,inhibit glioma invasion
same,cytotoxicity in combination with temozolomide (TMZ),[5],also seen
same,cytotoxicity in combination with dimethyl-celecoxib (DMC),[6],at least additive
same,pEC50,cancer stem cells USC-04; FIG. 15A,3.52
same,duration of disease remission in several patients,[7],≤ 3 years
same,patients achieving 6 month progression-free period,[7],50%
same,side effects from the treatment,[7],almost non-existent
same,cytotoxicity in combination with Nelfinavir (NFV),U251 human glioma cells [8],at least additive
same,sensitivity of U251 cells to POH relative to brain endothelial cells (BECs) and astrocytes,[9],more sensitive
same,cytotoxicity in combination with temozolomide (TMZ),U251 human glioma cells [10],at least additive
same,production of interleukin 8 (IL8) by glioma cells,interleukin 8 (IL8),inhibited production
same,number of spheres formed,[11],decreased the number of spheres
same,level of GRP78,"[12]; U251, U87 and A172 cells",up-regulated
same,POH IC50 compared among cell lines,[13],most resistant
same,TEER,[14],decreased
"C=C(C)[C@@H]1CC=C(CO)CC1 [Sigma POH, (S)-perillyl alcohol]",H-Ras expression,H-Ras [15],decreased
same,K-Ras expression,K-Ras,decreased
"Cn1nnc2c(C(N)=O)ncn2c1=O [TMZ, temozolomide]",survival after implantation,[16],up to 8 weeks
"C=C(C)[C@@H]1CC=C(CO)CC1 [purified POH, (S)-perillyl alcohol]","cytotoxicity (MTT), cell killing",[17],effective in killing
same,expression of CHOP,[4]; [22],increased expression
same,"cytotoxicity (MTT), cell killing",[18],efficacy
same,colony formation,[19],efficacy
same,expression of GRP-78,[12]; [22],increased expression
same,cytotoxicity in combination with radiation,B16-F1 melanoma cells,synergistic cytotoxicity
same,cell killing in combination with radiation,human A172 glioma cells,synergistically
same,cytotoxicity in combination with radiation,[20],synergistic cytotoxicity
same,"cytotoxicity (MTT), cell killing",[21],effective in killing
"COc1ccc(C2CNC(=O)C2)cc1OC1CCCC1 (stereo not shown) [rolipram, reference compound]",time after addition at which apoptosis occurred,"glioma cells; rolipram alone, high concentrations (e.g., 1 mM)",≥ 48 h
